{"source": "patent US5744494A", "about": "“Synergistic compositions containing benzimidazole anthelmintics and methylenedioxyphenyl compounds” (priority 1993, dated 1998)", "key": {"[1]": {"experiment": "in vivo", "conditions": "for AUC: goat, po, 7.5 mg/kg", "method": "In order to minimise interindividual variations our experimental protocol was designed as a crossover (each animal was used as its own control). A five week wash-out period was allowed between crossovers. Six goats were used in this experiment.\nFirst period: Fenbendazole (Panacur 2.5%) was administered orally at a dose rate of 7.5 mg/kg. Blood samples were taken prior to drug administration and 0.25, 0.5, 1, 2, 4, 8, 12, 24, 32, 48, 72 and 96 hours thereafter.\nSecond period: One hour before administration of fenbendazole (7.5 mg/kg) the animals received a dose of piperonyl butoxide (0.5 g/kg) given intramuscularly. Blood samples were taken as in the first period.\nPlasma samples were analysed for fenbendazole by High Performance Liquid Chromatography."}, "[2]": {"system": "hepatocytes cultured from rats", "excerpt": "An experiment using hepatocytes cultured from rats has been initiated to determine the metabolic interactions of piperonyl butoxide and fenbendazole (50 micromoles)."}, "[3]": {"system": "benzimidazole resistant Ostertagia circumcincta", "experiment": "Numbers of O. circumcincta in sheep at necropsy (dilution method)", "type": "in vivo", "method": "(§1) A study was carried out to determine the efficacy of the piperonyl butoxide: fenbendazole combination and to compare it with piperonyl-butoxide and fenbendazole alone against benzimidazole resistant abomasal parasites.\n(§2) Twenty-four parasite naive Suffolk cross lambs were allocated into four groups of six. Each lamb received an oral dose of 6,000 benzimidazole resistant Ostertagia circumcincta and 2,400 benzimidazole resistant Haemonchus contortus.\n(§3) Twenty-eight days after infection animals were treated as follows:\n(§4) Group 2 Piperonyl butoxide (63 mg/kg) by stomach tube.\n(§5) Group 3 Fenbendazole (5 mg/kg) by stomach tube.\n(§6) Group 4 Piperonyl butoxide (63 mg/kg) and fenbendazole\n(§7) (5 mg/kg) by stomach tube.\n(§8) All lambs were faecal sampled and killed seven days after treatment (day 35). Nematode egg numbers were determined in faeces by the McMaster egg counting technique (Gordon and Whitlock (1939) J. Council for Scientific and Industrial Res., 12,50) and numbers of O. circumcincta were determined by the dilution method of Ritchie et al. (1966), Amer J. Vet. Res., 27, 659-667. Total abomasal counts of H. contortus were determined."}, "[4]": {"system": "benzimidazole resistant Ostertagia circumcincta and Haemonchus contortus", "experiment": "Faecal egg counts in infected lambs (McMaster egg counting technique)", "type": "in vivo", "method": "as §1, §2, §3, §4, §5, §6, §7, §8"}, "[5]": {"system": "benzimidazole resistant Haemonchus contortus", "experiment": "Total abomasal counts of H. contortus in sheep at necropsy", "type": "in vivo", "conditions": "for numbers of H.contortus at necropsy, effect in words: 7 days after treatment; for Mean ±SD numbers of H. contortus in sheep killed 7 days after treatment: piperonyl butoxide 63 mg/kg and/or fenbendazole 5 mg/kg by stomach tube, no treatment 345 ± 69", "method": "as §1, §2, §3, §4, §5, §6, §7, §8"}, "[6]": {"conditions": "pretreatment with 2-diethylaminoethyl-2,2-diphenylvalerate hydrochloride and piperonyl butoxide; Food Chem. Toxicol. 1992, 30(12), 1021-30; cited from earlier work"}}}
{"smiles": "COC(=O)Nc1nc2ccc([S+]([O-])c3ccccc3)cc2[nH]1", "note": "(stereo not shown) [Fenbendazole sulfoxide, fenbendazole sulfoxide]", "values": [{"measurement": "AUC", "setting": "[1]; Area under plasma-concentration-time curve (Active alone), active alone, goats, fenbendazole 7.5 mg/kg oral", "result": 7720, "unit": "ng·h/mL"}, {"measurement": "concentrations of the sulfoxide and sulfone metabolites", "setting": "[2]", "result": "much reduced"}]}
{"smiles": "COC(=O)Nc1nc2ccc(Sc3ccccc3)cc2[nH]1", "note": "[Fenbendazole, fenbendazole]", "values": [{"measurement": "area under the plasma concentration-time curve (AUC), change in words", "setting": "[1]", "result": "significant increase"}, {"measurement": "residence time, change in words", "setting": "[1]", "result": "significantly prolonged"}, {"measurement": "AUC", "setting": "[1]; Area under plasma-concentration-time curve (Active alone)", "result": 4170, "unit": "ng·h/mL"}, {"measurement": "AUC", "setting": "[1]; Area under plasma-concentration-time curve (Active plus piperonyl butoxide)", "result": 16600, "unit": "ng·h/mL"}, {"measurement": "reduction of number of O.circumcincta in the abomasa, in words", "setting": "[3]; at necropsy, alone", "result": "Neither piperonyl butoxide nor fenbendazole alone significantly reduced"}, {"measurement": "Mean ±SD numbers of O. circumcincta in sheep killed 7 days after treatment", "setting": "[3]; piperonyl butoxide 63 mg/kg and/or fenbendazole 5 mg/kg by stomach tube, no treatment 2985 ± 654", "result": "2875 ± 1308"}, {"measurement": "Mean ±SD faecal egg counts in sheep seven days after treatment", "setting": "[4]; piperonyl butoxide 63 mg/kg and/or fenbendazole 5 mg/kg by stomach tube, no treatment 491 ± 267", "result": "100 ± 84 Eggs per gram of faeces"}, {"measurement": "reduction in faecal egg counts", "setting": "[4]; seven days after treatment", "result": 79.7, "unit": "%"}, {"measurement": "numbers of H.contortus at necropsy, effect in words", "setting": "[5]", "result": "significantly reduced"}, {"measurement": "Mean ±SD numbers of H. contortus in sheep killed 7 days after treatment", "setting": "[5]", "result": "58 ± 29"}]}
{"smiles": "CCCCOCCOCCOCc1cc2c(cc1CCC)OCO2", "note": "[Piperonyl butoxide, piperonyl butoxide]", "values": [{"measurement": "effect on oxidative metabolism of fenbendazole by rat liver cells", "setting": "[2]", "result": "inhibiting the oxidative metabolism of fenbendazole"}, {"measurement": "numbers of H.contortus at necropsy, effect in words", "setting": "[5]", "result": "no effect"}, {"measurement": "Mean ±SD numbers of H. contortus in sheep killed 7 days after treatment", "setting": "[5]", "result": "320 ± 133"}]}
{"smiles": "c1ccc2[nH]c(-c3cscn3)nc2c1", "note": "[thiabendazole]", "values": [{"measurement": "acute toxic effects on the kidneys of mice", "setting": "[6]", "result": "enhanced"}]}
